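96-well plates; 48 h exposure; 5 concentrations. Endpoints by linear interpolation between flanking doses. Not reached: highest tested concentration assigned. TGI is the concentration that stops growth completely.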
What was measured:
Experiment in all cases: inhibition of tumour cell growth, NCI panel, 48 h
NCI-H460 lung = system: NCI-H460 lung
HL-60(TB) leukemia = system: HL-60(TB) leukemia
PC-3 prostate = system: PC-3 prostate
NCI-H23 lung = system: NCI-H23 lung
SK-MEL-5 melanoma = system: SK-MEL-5 melanoma
MDA-N = system: MDA-N
HOP-62 NSCLC = system: HOP-62 NSCLC
KM12 colon = system: KM12 colon
SN12C renal = system: SN12C renal
DU-145 prostate = system: DU-145 prostate
MALME-3M melanoma = system: MALME-3M melanoma
TK-10 renal = system: TK-10 renal
HOP-92 NSCLC = system: HOP-92 NSCLC
SNB-19 CNS = system: SNB-19 CNS
OVCAR-3 ovarian = system: OVCAR-3 ovarian
CAKI-1 renal = system: CAKI-1 renal
HT29 colon = system: HT29 colon
UO-31 renal = system: UO-31 renal
SR leukemia = system: SR leukemia
CCRF-CEM leukemia = system: CCRF-CEM leukemia
HCT-15 colon = system: HCT-15 colon
NCI-H522 lung = system: NCI-H522 lung
SF-539 CNS = system: SF-539 CNS
COLO 205 colon = system: COLO 205 colon
MDA-MB-231 breast = system: MDA-MB-231 breast
SW-620 colon = system: SW-620 colon
NCI/ADR-RES ovarian = system: NCI/ADR-RES ovarian
786-0 renal = system: 786-0 renal
M14 melanoma = system: M14 melanoma
HCC-2998 colon = system: HCC-2998 colon
MCF7 breast = system: MCF7 breast
SK-OV-3 ovarian = system: SK-OV-3 ovarian
MOLT-4 leukemia = system: MOLT-4 leukemia
HS 578T breast = system: HS 578T breast
SNB-75 CNS = system: SNB-75 CNS
RXF 393 renal = system: RXF 393 renal
T-47D breast = system: T-47D breast
SF-268 CNS = system: SF-268 CNS
ACHN renal = system: ACHN renal
HCT-116 colon = system: HCT-116 colon
K-562 leukemia = system: K-562 leukemia
IGROV1 ovarian = system: IGROV1 ovarian
SK-MEL-2 melanoma = system: SK-MEL-2 melanoma
MDA-MB-435 = system: MDA-MB-435
A549 NSCLC = system: A549 NSCLC
U251 CNS = system: U251 CNS
BT-549 breast = system: BT-549 breast
EKVX NSCLC = system: EKVX NSCLC
OVCAR-4 ovarian = system: OVCAR-4 ovarian
OVCAR-8 ovarian = system: OVCAR-8 ovarian
UACC-257 melanoma = system: UACC-257 melanoma
A498 renal = system: A498 renal
SF-295 CNS = system: SF-295 CNS
NCI-H226 lung = system: NCI-H226 lung
UACC-62 melanoma = system: UACC-62 melanoma
OVCAR-5 ovarian = system: OVCAR-5 ovarian
SK-MEL-28 melanoma = system: SK-MEL-28 melanoma
LOX IMVI melanoma = system: LOX IMVI melanoma
RPMI-8226 leukemia = system: RPMI-8226 leukemia

Measured: TGI

O=S(=O)(O)c1cccc2cccc(N=Nc3c(O)ccc4ccccc34)c12
not listed: SK-MEL-28 melanoma | LOX IMVI melanoma | RPMI-8226 leukemia
> 100 µM: all other assays above

CC(C)=CCOc1cc(NC(=S)c2ccsc2C)ccc1Cl
84.4 µM: SR leukemia
58.9 µM: HOP-62 NSCLC
89.3 µM: IGROV1 ovarian
37.1 µM: HOP-92 NSCLC
66.4 µM: SNB-75 CNS
88 µM: HCC-2998 colon
83.4 µM: MDA-MB-231 breast
80.6 µM: RXF 393 renal
53.1 µM: RPMI-8226 leukemia
not listed: M14 melanoma
> 100 µM: all other assays above

From PubChem BioAssay (NCI)
